US11365199B2, “Pyrazole compounds as modulators of FSHR and uses thereof” (Merck Patent GmbH, priority 2013, dated 2022)

Experiments:
FSHR = target: T1, FSHR (Homo sapiens, UniProt P23945); assay: EC50 of cyclic AMP production in CHO FSHR cells + EC20 FSH (Assay A); format: cell-based; conditions: CHO FSHR cells + EC20 FSH, cAMP HTRF; read-out: Assay A: EC50 of cyclic AMP production
T1 construct: expressed in transfected cells; host or cells: CHO (Cho-FSHR-LUC-1-1-43)
T1 sequence (P23945 18-695): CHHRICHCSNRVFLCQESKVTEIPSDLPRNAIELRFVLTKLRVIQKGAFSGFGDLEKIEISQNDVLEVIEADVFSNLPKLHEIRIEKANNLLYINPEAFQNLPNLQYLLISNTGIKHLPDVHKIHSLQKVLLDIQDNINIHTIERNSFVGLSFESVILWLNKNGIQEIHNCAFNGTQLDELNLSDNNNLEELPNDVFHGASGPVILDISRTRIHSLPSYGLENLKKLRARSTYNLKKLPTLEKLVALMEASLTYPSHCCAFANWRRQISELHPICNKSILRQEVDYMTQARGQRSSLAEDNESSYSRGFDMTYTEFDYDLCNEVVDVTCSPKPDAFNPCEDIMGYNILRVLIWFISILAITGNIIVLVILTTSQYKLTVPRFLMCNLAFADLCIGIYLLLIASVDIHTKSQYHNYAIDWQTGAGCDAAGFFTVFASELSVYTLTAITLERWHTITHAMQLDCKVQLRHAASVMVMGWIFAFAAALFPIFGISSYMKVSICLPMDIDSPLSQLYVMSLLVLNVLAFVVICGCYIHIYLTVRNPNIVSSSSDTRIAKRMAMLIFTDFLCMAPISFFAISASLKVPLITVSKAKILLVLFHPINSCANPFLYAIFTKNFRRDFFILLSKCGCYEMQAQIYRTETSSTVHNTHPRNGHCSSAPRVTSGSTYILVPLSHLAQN
How it was run: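 Cho-FSHR-LUC cells were exposed to compound dilution series with EC20 FSH ([…]) and 200 μM IBMX for 1 h at 37° C. cAMP was read by HTRF (665/620 nm ratio). Effects are percent of the maximal FSH standard response.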

[1] = target: T2, follicle-stimulating hormone (FSH) receptor (Rattus norvegicus, UniProt P20395); assay: Rat granulosa EC50 FSH (Assay B); format: cell-based; conditions: for EC50: rat granulosa cells, read-out: Assay B: Rat granulosa EC50 FSH
T2 construct: endogenous in cells; host or cells: primary rat granulosa cells
T2 sequence (P20395 18-692): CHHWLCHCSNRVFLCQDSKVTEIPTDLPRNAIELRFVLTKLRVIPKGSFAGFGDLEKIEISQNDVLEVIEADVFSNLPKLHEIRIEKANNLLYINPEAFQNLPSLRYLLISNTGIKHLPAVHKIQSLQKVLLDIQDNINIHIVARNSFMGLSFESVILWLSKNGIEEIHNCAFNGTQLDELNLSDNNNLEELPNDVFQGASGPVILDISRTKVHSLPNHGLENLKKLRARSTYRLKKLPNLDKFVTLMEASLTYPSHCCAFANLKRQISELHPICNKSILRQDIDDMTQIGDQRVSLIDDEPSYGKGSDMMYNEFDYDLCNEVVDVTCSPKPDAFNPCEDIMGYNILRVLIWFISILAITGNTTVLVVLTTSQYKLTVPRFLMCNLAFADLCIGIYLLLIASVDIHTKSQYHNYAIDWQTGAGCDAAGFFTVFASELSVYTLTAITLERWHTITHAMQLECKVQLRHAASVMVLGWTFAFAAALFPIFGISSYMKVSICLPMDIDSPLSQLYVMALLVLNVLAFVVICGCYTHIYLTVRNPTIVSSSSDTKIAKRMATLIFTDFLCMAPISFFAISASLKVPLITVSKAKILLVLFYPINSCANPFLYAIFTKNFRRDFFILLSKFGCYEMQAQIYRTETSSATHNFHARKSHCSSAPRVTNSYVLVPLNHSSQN
Description: Rat Granulosa EC50 FSH (Assay B)
The assay was performed pursuant to the teaching of Yanofsky et al. (2006) Allosteric activation of the follicle-stimulating hormone (FSH) receptor by selective, nonpeptide agonists (JBC 281(19): 13226-13233, which is incorporated by reference in the disclosure of the invention).

EC50 (FSHR) | EC50 [1] | Emax at 30 µM ([1]; @ 30 μM, read-out: Assay B: percental effect (response) relative to the maximum response of the FSH standard) | Structure (SMILES)
< 100 nM | 1000 to 5000 nM |  | COC(=O)C1CCCN(C(=O)c2nn(-c3ccsc3)c3c2COc2cc(OC)c(OC(C)C)cc2-3)CC1 (centres unmarked) [Compound 24, 1-(8-Isopropoxy-7-methoxy-1-thiophen-3-yl-1,4-dihydro-chromeno[4,3-c]pyrazole-3-carbonyl)-azepane-4-carboxylic acid methyl ester]
< 100 nM | 100 to 1000 nM |  | COc1cc2c(cc1C1CCOC1)-c1c(c(C(=O)N(C)C(C)(C)C)nn1-c1ccsc1)CO2 (centres unmarked) [Compound 194, 7-Methoxy-8-(tetrahydro-furan-3-yl)-1-thiophen-3-yl-1,4-dihydro-chromeno[4,3-c]pyrazole-3-carboxylic Acid tert-butyl-methyl-amide]
< 100 nM | 1000 to 5000 nM |  | COc1cc2c(cc1OC(C)C)-c1c(c(C(=O)N(C)C(C)(C)C)nn1-c1ccsc1)CO2 [Compound 19, 8-Isopropoxy-7-methoxy-1-thiophen-3-yl-1,4-dihydro-chromeno[4,3-c]pyrazole-3-carboxylic Acid tert-butyl-methyl-amide]
< 100 nM | 1000 to 5000 nM |  | [2H]C([2H])([2H])N(C(=O)c1nn(-c2ccsc2)c2c1COc1cc(OC)c(-c3ccn(C)n3)cc1-2)C1(C)COC1 [Compound 116]
> 5000 nM | > 5000 nM |  | COc1cc2c(cc1OC(C)C)-c1c(c(C(=O)NCCCNC(=O)C3CCC3)nn1-c1ccsc1)CO2 [Compound 28, 8-Isopropoxy-7-methoxy-1-thiophen-3-yl-1,4-dihydro-chromeno[4,3-c]pyrazole-3-carboxylic Acid [3-(cyclobutanecarbonyl-amino)-propyl]-amide]
100 to 1000 nM | 100 to 1000 nM |  | COc1cc2c(cc1-c1ccn(C)c1)-c1c(c(C(=O)NC3(C)COC3)nn1-c1ccsc1)CO2 [Compound 99, 7-Methoxy-8-(1-methyl-1H-pyrrol-3-yl)-1-thiophen-3-yl-1,4-dihydro-chromeno[4,3-c]pyrazole-3-carboxylic acid (3-methyl-oxetan-3-yl)-amide]
< 100 nM | 1000 to 5000 nM |  | COc1cc2c(cc1C=C(C)C)-c1c(c(C(=O)N(C)C(C)(C)C)nn1-c1ccsc1)CO2 [Compound 6, 7-Methoxy-8-(2-methyl-propenyl)-1-thiophen-3-yl-1,4-dihydro-chromeno[4,3-c]pyrazole-3-carboxylic Acid tert-butyl-methyl-amide]
< 100 nM | < 100 nM |  | [2H]C([2H])([2H])OCC1(C)CCCN1C(=O)c1nn(-c2ccsc2)c2c1COc1cc(OC)c(-c3ccn(C)c3)cc1-2 (centres unmarked) [Compound 184]
< 100 nM | > 5000 nM |  | [2H]C([2H])([2H])OCC1(N(C(=O)c2nn(-c3ccsc3)c3c2COc2cc(OC)c(S(=O)(=O)C(C)C)cc2-3)C([2H])([2H])[2H])COC1 [Compound 200]
< 100 nM | 1000 to 5000 nM |  | [2H]C([2H])([2H])OCC1(N(C(=O)c2nn(-c3ccsc3)c3c2COc2cc(OC)c(-c4ccn(C)n4)cc2-3)C([2H])([2H])[2H])COC1 [Compound 114]
< 100 nM | 1000 to 5000 nM |  | COc1cc2c(cc1-c1ccn(C)c1)-c1c(c(C(=O)N3CCNCC3(C)C)nn1-c1ccsc1)CO2 [Compound 170]
< 100 nM | 100 to 1000 nM |  | COc1cc2c(cc1SC(C)C)-c1c(c(C(=O)N(C)C(C)(C)C)nn1-c1ccsc1)CO2 [Compound 52, 8-isopropylsulfanyl-7-methoxy-1-thiophen-3-yl-1,4-dihydro-chromeno[4,3-c]pyrazole-3-carboxylic Acid tert-butyl-methyl-amide]
< 100 nM | > 5000 nM |  | COc1cc2c(cc1-c1cc(C)nn1C)-c1c(c(C(=O)N3CCOCC3(C)C)nn1-c1ccsc1)CO2 [Compound 122, (3,3-Dimethyl-morpholin-4-yl)-[8-(2,5-dimethyl-2H-pyrazol-3-yl)-7-methoxy-1-thiophen-3-yl-1,4-dihydro-chromeno[4,3-c]pyrazol-3-yl]-methanone]
1000 to 5000 nM |  | 40.5% | COc1cc2c(cc1C=C(C)C)-c1c(c(C(=O)NCCCN3CCOC3=O)nn1-c1ccsc1)CO2 [Compound 9, 7-Methoxy-8-(2-methyl-propenyl)-1-thiophen-3-yl-1,4-dihydro-chromeno[4,3-c]pyrazole-3-carboxylic acid [3-(2-oxo-oxazolidin-3-yl)-propyl]-amide]
< 100 nM | 1000 to 5000 nM |  | [2H]C([2H])([2H])N(CCN(C(=O)c1nn(-c2ccsc2)c2c1COc1cc(OC)c(CC(C)C)cc1-2)C([2H])([2H])[2H])C(C)=O [Compound 82]
< 100 nM | 1000 to 5000 nM |  | COc1cc2c(cc1CC(C)C)-c1c(c(C(=O)N(C)C(C)(C)C)nn1-c1ccsc1)CO2 [Compound 5, 8-Isobutyl-7-methoxy-1-thiophen-3-yl-1,4-dihydro-chromeno[4,3-c]pyrazole-3-carboxylic Acid tert-butyl-methyl-amide]
< 100 nM | 100 to 1000 nM |  | [2H]C([2H])([2H])OCC1(N(C(=O)c2nn(-c3ccsc3)c3c2COc2cc(OC)c(-c4ccn(C)c4)cc2-3)C([2H])([2H])[2H])COC1 [Compound 113]
< 100 nM | 1000 to 5000 nM |  | COc1cc2c(cc1C(O)C(C)C)-c1c(c(C(=O)N3CCOCC3(C)C)nn1-c1ccsc1)CO2 (centres unmarked) [Compound 131, (3,3-Dimethyl-morpholin-4-yl)-[8-(1-hydroxy-2-methyl-propyl)-7-methoxy-1-thiophen-3-yl-1,4-dihydro-chromeno[4,3-c]pyrazol-3-yl]-methanone]

Structure (SMILES) | EC50 (FSHR) | EC50 [1] | Emax at 30 µM ([1]; @ 30 μM, read-out: Assay B: percental effect (response) relative to the maximum response of the FSH standard)
COc1cc2c(cc1SCC(C)C)-c1c(c(C(=O)N3CCOCC3(C)C)nn1-c1ccsc1)CO2 [Compound 97, (3,3-Dimethyl-morpholin-4-yl)-(8-isobutylsulfanyl-7-methoxy-1-thiophen-3-yl-1,4-dihydro-chromeno[4,3-c]pyrazol-3-yl)-methanone] | 100 to 1000 nM | 100 to 1000 nM | 
